Assays:
IL-6 = tested on: IL-6; parameters: method as in PMID 34544906; details: norbixin at 20 mM (so in the source); cited from earlier work
[1] = BIO203 in plasma and eyes of mice after 6 months of BIO203-containing pellets; format: in vivo
Method: A custom rodent diet was formulated and irradiated (25 kGy) by Envigo RMS SARL (Gannat, France). Low dose (LD)-BIO203 (50 μg/g) and high dose (HD)-BIO203 (500 μg/g) were incorporated into Teklad Custom Research Diet 2016© pellets. The pellets were stored at −20 °C until use and were administered ad libitum as the standard Teklad Global Rodent Diet 2016© used for the control group. The concentration of BIO203 in the customized pellets at the end of each batch was determined by HPLC MS/MS. The mean concentration was 46 μg/g ± 3.5 μg/g of pellet for the LD and 464 μg/g ± 24.3 μg/g of pellet for the HD. We calculated that in the LD group, male mice weighing 31.63 g after 2 months of complementation consumed 4.16 g of pellets, and in the HD group, male mice weighing 34.11 g after 2 months of complementation consumed 4.11 g of pellets every day, which correspond to a daily dose of 6.04 ± 0.46 mg/kg for the LD-BIO203 pellets and 55.91 ± 2.93 mg/kg for the HD-BIO203 pellets.
To test the preventive/curative action of oral administration of BIO203 against retinal neurodegeneration, a total of 27 Pigmented Abca4^−/− Rdh8^−/− mice carrying the Rpe65-Leu450 mutation and the rd8 mutation in the Crb1 gene from Case Western Reserve University of eleven to twelve months of age were used. Three groups of 9 males received control chow (Teklad Custom Research Diet 2016© pellets) or chow containing LD-BIO203 or HD-BIO203 orally for 6 months. After 6 months of complementation, ERG was measured in both eyes. In the control group, two mice died during the period of complementation and one mouse during ERG measurement. In the HD-BIO203 group, one mouse died before the end of complementation, and 3 mice died just after anesthesia. […] In each group, half of the eyes were removed for A2E and BIO203 measurements, and half of the eyes were used for histological analyses and photoreceptor layer quantification.
Analysis was performed on an LC 1260 System coupled with Mass Spectrometer QQQ-6420 with DAD (Agilent Technologies). […] BIO203 and its isomers were monitored by a mass spectrometer, in positive MRM mode, with the following transitions, respectively, 381.1 -> 144.9 and 478.1 -> 362.9. For quantification of BIO201 and BIO203, calibration curves were prepared under the same conditions as the sample matrix, with various amounts of BIO201 or BIO203 (25 to 10,000 ng/mL in plasma and 5 to 500 ng/mL for eyes).
For determination of norbixin or BIO203 concentrations in plasma, aliquots of plasma samples (25 μL) and internal standard (retinoic acid at 10 µg/mL) were distributed in a 96-well microtiter plate and precipitated with methanol (100 μL). […] Under these conditions, with 5 μL injections, the limit of quantification (LOQ) was 25 ng/mL (0.33 pmol for BIO201 and 0.26 pmol for BIO203). […]

SMILES	effect on IL-6 mRNA expression (IL-6)	BIO203 in the eyes ([1]; HD pellets (500 μg/g))	BIO203 in the plasma ([1]; HD pellets (500 μg/g))	BIO203 in the eyes ([1]; LD pellets (50 μg/g))	BIO203 in the plasma ([1]; LD pellets (50 μg/g))
CC(=C/C=C/C(C)=C/C=C/C=C(C)/C=C/C=C(C)/C=C/C(=O)O)/C=C/C(=O)O [norbixin, 9′-cis-norbixin]	significantly reduced				
COC1CCCN(C(=O)/C=C/C(C)=C/C=C/C(C)=C/C=C/C=C(C)/C=C/C=C(C)\C=C\C(=O)O)C1 (centres unmarked) [BIO203]		not detected	detected	not detected	absence of BIO203 plasmatic exposure
